Assay results reported in patent US10975119B2, “Selective cysteine protease inhibitors and uses thereof” (Genesis Technologies Limited, priority 2011, dated 2021).
Like-named read-outs stand apart in the source and are kept apart here.

Experiments:
Type in all cases: biochemical
Caspase-4 = biological target: T1, Caspase-4 (Homo sapiens, UniProt P49662); assay: Caspase-4 inhibitor screening assay (BioVision kit, LEVD-AFC); settings: read-out: IC50 Casp4
T1 construct: mixing the compounds with the respective active caspases; purchased BioVision K154-100
T1 sequence (P49662 81-270 limits assumed): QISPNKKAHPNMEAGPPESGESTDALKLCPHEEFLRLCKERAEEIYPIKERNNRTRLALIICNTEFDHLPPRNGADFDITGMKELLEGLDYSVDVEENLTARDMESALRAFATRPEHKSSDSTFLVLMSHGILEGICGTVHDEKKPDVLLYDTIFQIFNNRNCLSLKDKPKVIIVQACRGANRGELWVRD
T1 sequence (P49662 290-377 limits assumed): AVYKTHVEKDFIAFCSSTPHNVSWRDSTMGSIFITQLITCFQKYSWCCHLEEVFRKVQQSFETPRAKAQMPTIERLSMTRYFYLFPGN
Protocol: (§1) The efficacy of an array of compounds as an inhibitor of the activity of Caspases 1 through 10 were assessed by using the respective Caspase Inhibitor Drug Screening Kits (Caspase-1 Catalog #: K151-100, Caspase-2 Catalog #: K152-100, Caspase-3 Catalog #: K153-100, Caspase-4 Catalog #: K154-100, Caspase-5 Catalog #: K155-100, Caspase-6 Catalog #: K156-100, Caspase-7 Catalog #: K157-100, Caspase-8 Catalog #: K158-100, Caspase-9 Catalog #: K159-100, Caspase-10 Catalog #: K160-100, BioVision) following the instructions of the manufacturer. […] Active caspases cleaved their respective synthetic substrates to release free AFC, which was then quantified by fluorometry.
(§2) Briefly, the compounds were first tested at 2 concentrations (10 uM and 100 uM final) to determine if there is a hit. […] Each condition was tested in duplicates. […] For some samples, a smaller range of concentrations was tested depending on the % Inhibition results at 10 uM and 100 uM. Results were summarized in Tables 2, 3, and 4 herein after. Table 2 represents the IC50 values (uM) of the test compounds as inhibitors of the activity of the various caspases.
(§3) (*) RFU (no inhibitor control)—RFU (compound at a specific concentration)
(§4) RFU (no inhibitor control)

Caspase-5 = biological target: T2, Caspase-5 (Homo sapiens, UniProt P51878); assay: Caspase-5 inhibitor screening assay (BioVision kit, WEHD-AFC); settings: read-out: IC50 Casp5
T2 construct: mixing the compounds with the respective active caspases; purchased BioVision K155-100
T2 sequence (P51878 137-327 limits assumed): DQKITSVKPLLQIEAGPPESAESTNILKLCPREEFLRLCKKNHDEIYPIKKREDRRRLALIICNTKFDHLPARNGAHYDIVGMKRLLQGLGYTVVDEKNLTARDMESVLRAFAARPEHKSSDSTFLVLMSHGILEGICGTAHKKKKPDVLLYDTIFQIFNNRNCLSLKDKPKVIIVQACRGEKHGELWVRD
T2 sequence (P51878 347-434 limits assumed): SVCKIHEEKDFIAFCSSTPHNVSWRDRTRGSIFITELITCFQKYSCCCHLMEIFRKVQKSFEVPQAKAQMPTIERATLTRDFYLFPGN
Protocol: as §1, §2, §3, §4

Caspase-8 = biological target: T3, Caspase-8 (Homo sapiens, UniProt Q14790); assay: Caspase-8 inhibitor screening assay (BioVision kit, IETD-AFC); settings: read-out: IC50 Casp8
T3 construct: mixing the compounds with the respective active caspases; purchased BioVision K158-100
T3 sequence (Q14790 217-374 limits assumed): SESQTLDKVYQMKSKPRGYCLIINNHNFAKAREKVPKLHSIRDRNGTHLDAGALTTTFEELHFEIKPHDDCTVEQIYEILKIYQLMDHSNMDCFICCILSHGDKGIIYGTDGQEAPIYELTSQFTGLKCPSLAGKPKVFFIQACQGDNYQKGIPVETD
T3 sequence (Q14790 385-479 limits assumed): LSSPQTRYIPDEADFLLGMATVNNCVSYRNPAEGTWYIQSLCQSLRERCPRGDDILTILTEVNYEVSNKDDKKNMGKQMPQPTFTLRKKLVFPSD
Protocol: as §1, §2, §3, §4

Caspase-6 = biological target: T4, Caspase-6 (Homo sapiens, UniProt P55212); assay: Caspase-6 inhibitor screening assay (BioVision kit, VEID-AFC)
T4 construct: mixing the compounds with the respective active caspases; purchased BioVision K156-100
T4 sequence (P55212 24-179 limits assumed): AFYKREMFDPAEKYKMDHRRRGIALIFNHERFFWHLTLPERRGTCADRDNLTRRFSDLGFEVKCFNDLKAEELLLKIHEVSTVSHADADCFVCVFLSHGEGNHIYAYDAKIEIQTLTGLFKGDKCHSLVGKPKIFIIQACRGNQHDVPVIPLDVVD
T4 sequence (P55212 194-293 limits assumed): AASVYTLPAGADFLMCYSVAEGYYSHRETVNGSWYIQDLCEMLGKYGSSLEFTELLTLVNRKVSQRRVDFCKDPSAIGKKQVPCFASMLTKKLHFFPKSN
Protocol: as §1, §2, §3, §4

Caspase-3 = biological target: T5, Caspase-3 (Homo sapiens, UniProt P42574); assay: Caspase-3 inhibitor screening assay (BioVision kit, DEVD-AFC); settings: read-out: IC50 Casp3
T5 construct: mixing the compounds with the respective active caspases; purchased BioVision K153-100
T5 sequence (P42574 29-175 limits assumed): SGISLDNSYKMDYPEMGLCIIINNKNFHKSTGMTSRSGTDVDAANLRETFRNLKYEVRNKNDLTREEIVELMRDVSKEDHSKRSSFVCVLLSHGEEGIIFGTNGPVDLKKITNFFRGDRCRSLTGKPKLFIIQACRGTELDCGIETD
T5 sequence (P42574 176-277 limits assumed): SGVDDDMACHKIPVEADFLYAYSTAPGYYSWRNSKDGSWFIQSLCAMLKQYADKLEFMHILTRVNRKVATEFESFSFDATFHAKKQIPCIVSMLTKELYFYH
Protocol: as §1, §2, §3, §4

Caspase-1 = biological target: T6, Caspase-1 (Homo sapiens, UniProt P29466); assay: Caspase-1 inhibitor screening assay (BioVision kit, YVAD-AFC); settings: read-out: IC50 Casp1
T6 construct: mixing the compounds with the respective active caspases; purchased BioVision K151-100
T6 sequence (P29466 120-297 limits assumed): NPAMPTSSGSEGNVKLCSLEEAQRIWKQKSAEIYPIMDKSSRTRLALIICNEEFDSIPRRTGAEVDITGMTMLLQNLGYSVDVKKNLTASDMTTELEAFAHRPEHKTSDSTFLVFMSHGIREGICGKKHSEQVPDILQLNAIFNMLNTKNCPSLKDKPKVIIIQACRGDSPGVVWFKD
T6 sequence (P29466 317-404 limits assumed): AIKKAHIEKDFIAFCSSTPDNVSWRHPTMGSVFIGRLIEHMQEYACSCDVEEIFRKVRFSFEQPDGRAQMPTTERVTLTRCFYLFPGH
Protocol: as §1, §2, §3, §4

Caspase-7 = biological target: T7, Caspase-7 (Homo sapiens, UniProt P55210); assay: Caspase-7 inhibitor screening assay (BioVision kit, DEVD-AFC); settings: read-out: IC50 Casp7
T7 construct: mixing the compounds with the respective active caspases; purchased BioVision K157-100
T7 sequence (P55210 24-198 limits assumed): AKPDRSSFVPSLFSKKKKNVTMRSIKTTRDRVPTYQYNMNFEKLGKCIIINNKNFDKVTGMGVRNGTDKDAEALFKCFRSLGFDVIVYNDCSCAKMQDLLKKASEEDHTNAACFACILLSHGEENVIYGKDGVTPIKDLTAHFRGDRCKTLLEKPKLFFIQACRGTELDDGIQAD
T7 sequence (P55210 207-303 limits assumed): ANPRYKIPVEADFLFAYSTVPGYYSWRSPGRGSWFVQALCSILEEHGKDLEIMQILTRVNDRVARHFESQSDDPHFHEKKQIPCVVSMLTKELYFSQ
Protocol: as §1, §2, §3, §4

Caspase-10 = biological target: T8, Caspase-10 (Homo sapiens, UniProt Q92851); assay: Caspase-10 inhibitor screening assay (BioVision kit, AEVD-AFC); settings: read-out: IC50 Casp10
T8 construct: mixing the compounds with the respective active caspases; purchased BioVision K160-100
T8 sequence (Q92851 220-415 limits assumed): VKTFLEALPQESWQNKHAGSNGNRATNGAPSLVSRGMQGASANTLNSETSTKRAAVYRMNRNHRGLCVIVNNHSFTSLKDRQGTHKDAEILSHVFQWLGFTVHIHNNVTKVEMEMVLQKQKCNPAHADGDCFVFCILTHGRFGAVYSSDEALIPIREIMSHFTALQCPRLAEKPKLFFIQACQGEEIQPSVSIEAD
T8 sequence (Q92851 416-521 limits assumed): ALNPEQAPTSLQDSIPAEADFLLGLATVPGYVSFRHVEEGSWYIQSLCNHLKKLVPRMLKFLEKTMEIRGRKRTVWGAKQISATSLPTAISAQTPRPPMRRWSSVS
Protocol: as §1, §2, §3, §4

Caspase-9 = biological target: T9, Caspase-9 (Homo sapiens, UniProt P55211); assay: Caspase-9 inhibitor screening assay (BioVision kit, LEHD-AFC); settings: read-out: IC50 Casp9
T9 construct: purchased BioVision K159-100
T9 sequence (P55211 1-315 limits assumed): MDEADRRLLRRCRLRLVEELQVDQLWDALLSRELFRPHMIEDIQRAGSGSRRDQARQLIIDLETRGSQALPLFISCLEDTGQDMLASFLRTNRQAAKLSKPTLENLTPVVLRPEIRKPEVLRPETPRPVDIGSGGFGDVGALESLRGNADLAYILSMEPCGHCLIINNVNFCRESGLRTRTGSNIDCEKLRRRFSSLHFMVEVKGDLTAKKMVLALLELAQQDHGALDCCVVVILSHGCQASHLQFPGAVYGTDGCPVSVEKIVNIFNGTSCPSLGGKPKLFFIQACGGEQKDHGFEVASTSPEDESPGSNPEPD
T9 sequence (P55211 331-416 limits assumed): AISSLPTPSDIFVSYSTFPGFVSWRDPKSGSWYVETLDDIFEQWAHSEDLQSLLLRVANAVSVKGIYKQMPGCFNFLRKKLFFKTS
Protocol: as §1, §2, §3, §4

Row | IC50 (Caspase-4) | IC50 (Caspase-5) | IC50 (Caspase-8) | IC50 (Caspase-6; read-out: IC50 Casp6) | IC50 (Caspase-3) | IC50 (Caspase-1) | IC50 (Caspase-7) | IC50 (Caspase-10) | IC50 (Caspase-6; read-out: inhibition (IC50) against Caspase-6) | IC50 (Caspase-9) | Structure (SMILES)
1 | 70 nM | 900 nM | 1400 nM | > 100000 nM | > 100000 nM | 110 nM | > 100000 nM |  |  |  | CCOC(=O)/C(Cl)=C/[C@H](CC(=O)O)NC(=O)[C@H]1CCCN1C(=O)[C@@H](NC(=O)c1ccc(N)c(Cl)c1)C(C)(C)C [Compound 117, 4-amino-3-chlorobenzene carbonyl-t-Leu-Pro-Asp αchlorovinyl Ethyl Vinyl Ester]
2 | > 100000 nM | 16000 nM |  | > 100000 nM | 1270 nM | 7900 nM | 150 nM | 50 nM |  |  | CCOC(=O)/C(Cl)=C/[C@H](CC(=O)O)NC(=O)[C@H]1CCCN1C(=O)[C@H](NC(=O)[C@H](CC(=O)O)NC(=O)OCc1ccccc1)C(C)(C)C [Compound 57, Z-Asp-t-Leu-Pro-Asp αchlorovinyl Ethyl Vinyl Ester]
3 | 1800 nM | 4200 nM | 530 nM |  | 1340 nM | 3880 nM |  | 190 nM | 229 nM | 6400 nM | CCC(C)[C@H](NC(=O)[C@H](CCC(=O)O)NC(=O)[C@@H](NC(=O)OCc1ccccc1)C(C)C)C(=O)N[C@H](/C=C(\Cl)S(C)(=O)=O)CC(=O)O (stereo partly drawn) [Compound 123, Z-Val-Glu-Ile-Asp-achlorovinyl methyl vinyl sulfone]
